Values quoted from earlier work in PMC3391414 (Journal of Agricultural and Food Chemistry, 2011).

Tests used:
[1] = bioavailability studies in humans; cited from earlier work
UGT1A9 = target: T1, UGT1A9 (Homo sapiens, UniProt O60656); conditions: cited from earlier work
T1 sequence (O60656 26-530): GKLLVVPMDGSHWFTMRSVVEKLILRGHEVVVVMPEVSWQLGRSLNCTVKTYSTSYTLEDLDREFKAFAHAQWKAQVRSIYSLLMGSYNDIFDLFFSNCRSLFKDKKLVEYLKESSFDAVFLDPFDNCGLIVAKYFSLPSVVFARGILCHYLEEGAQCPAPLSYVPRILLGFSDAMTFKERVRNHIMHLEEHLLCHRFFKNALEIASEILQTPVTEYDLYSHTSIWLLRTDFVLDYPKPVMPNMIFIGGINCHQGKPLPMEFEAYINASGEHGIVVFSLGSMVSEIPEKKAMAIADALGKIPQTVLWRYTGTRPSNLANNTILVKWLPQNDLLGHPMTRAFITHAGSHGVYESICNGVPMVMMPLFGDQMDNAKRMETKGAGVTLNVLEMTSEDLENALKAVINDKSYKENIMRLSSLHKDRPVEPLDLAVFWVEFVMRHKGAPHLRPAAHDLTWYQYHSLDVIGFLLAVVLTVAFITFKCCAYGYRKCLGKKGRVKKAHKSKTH

In the case of `O=c1c(O)c(-c2ccc(O)c(O)c2)oc2cc(O)cc(O)c12` [quercetin, 3,5,7,3’-4’-pentahydroxyflavone], the Main glucuronide found [1] is given as 3-O-glucuronide of quercetin was also the main glucuronide and the “Catalytic efficiency order for regiospecific glucuronidation” value (UGT1A9) is given as 3- > 7- > 3′- > 4′-O-glucuronide.
